Test results as given in patent US20050197338A1, “Substituted pyrazole urea compounds for the treatment of inflammation” (priority 2003, published 2005).

biological target: T1, human IKK-2 (rhIKK-2 homodimer) (Homo sapiens, UniProt O14920); experiment: IKK-2 Resin Enzyme Assay (Human IKK-2 Enzyme Assay); assay type: biochemical; details: not given
T1 construct: FLAG (DYKDDDDKD) (C); made in house; host or cells: insect cells (baculovirus, pFastBac)
T1 sequence (O14920 1-756): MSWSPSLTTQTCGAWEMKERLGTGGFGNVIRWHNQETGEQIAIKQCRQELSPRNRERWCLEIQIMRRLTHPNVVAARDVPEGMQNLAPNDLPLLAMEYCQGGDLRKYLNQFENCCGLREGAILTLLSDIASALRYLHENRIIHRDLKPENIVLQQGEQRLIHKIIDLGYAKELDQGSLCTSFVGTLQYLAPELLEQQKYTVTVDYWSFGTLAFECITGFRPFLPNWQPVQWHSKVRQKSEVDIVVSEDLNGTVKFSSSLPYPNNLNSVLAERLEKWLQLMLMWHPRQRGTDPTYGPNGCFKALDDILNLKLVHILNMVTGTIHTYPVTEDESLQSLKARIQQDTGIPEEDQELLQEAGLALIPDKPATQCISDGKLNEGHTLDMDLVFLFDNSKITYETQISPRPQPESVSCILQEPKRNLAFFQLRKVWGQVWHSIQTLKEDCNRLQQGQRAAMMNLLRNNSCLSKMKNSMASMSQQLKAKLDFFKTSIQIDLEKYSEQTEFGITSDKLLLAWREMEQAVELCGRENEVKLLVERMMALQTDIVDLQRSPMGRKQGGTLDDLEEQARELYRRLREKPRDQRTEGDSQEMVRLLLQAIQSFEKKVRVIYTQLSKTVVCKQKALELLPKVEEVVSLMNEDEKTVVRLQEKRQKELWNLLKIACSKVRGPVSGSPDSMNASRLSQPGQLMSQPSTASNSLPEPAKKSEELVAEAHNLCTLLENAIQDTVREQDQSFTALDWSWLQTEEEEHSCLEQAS
Procedure, shortened: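 C-terminally FLAG-tagged human IKK-2 homodimer, baculovirus-expressed in insect cells and anti-FLAG purified. Reaction mix: 5 μM biotinylated IκBα peptide (Ser32/Ser36 region), 1 μM ATP with [γ-33P]ATP, 2 mM MgCl2, 2 mM MnCl2, 10 mM NaF, 1 mM DTT, 25 mM HEPES pH 7.6. Incubated 30 min at 25 °C; IC50 derived.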

| SMILES | IC50 [µM] |
| --- | --- |
| NC(=O)Nc1cn(-c2cccc(-c3ccc(C(=O)N4CCC(=O)CC4)cc3)c2)nc1C(N)=O [Example 90, 4-[(aminocarbonyl)amino]-1-{4′-[(4-oxopiperidin-1-yl)carbonyl]-1,1′-biphenyl-3-yl}-1H-pyrazole-3-carboxamide] | 2.81 |

same assay, conditions: human IKK-2, resin enzyme assay; read-out: IC50 (μM) hIKK-2

| SMILES | IC50 [µM] |
| --- | --- |
| NC(=O)Nc1cn(-c2cccc(-c3ccccc3OCc3ccccc3)c2)nc1C(N)=O [Example 86, 4-[(aminocarbonyl)amino]-1-[2′-(benzyloxy)-1,1′-biphenyl-3-yl]-1H-pyrazole-3-carboxamide] | 5.91 |
| NC(=O)Nc1cn(-c2cccc(-c3ccccc3CO)c2)nc1C(N)=O [Example 87] | 1.52 |
| COc1ccccc1-c1cccc(-n2cc(NC(N)=O)c(C(N)=O)n2)c1 [Example 88, 4-[(aminocarbonyl)amino]-1-(2′-methoxy-1,1′-biphenyl-3-yl)-1H-pyrazole-3-carboxamide] | 3.2 |
| Cc1cc(O)ccc1-c1cccc(-n2cc(NC(N)=O)c(C(N)=O)n2)c1 [Example 89, 4-[(aminocarbonyl)amino]-1-(4′-hydroxy-2′-methyl-1,1′-biphenyl-3-yl)-1H-pyrazole-3-carboxamide] | 0.7 |
| CC(=O)c1ccccc1-c1cccc(-n2cc(NC(N)=O)c(C(N)=O)n2)c1 [Example 91, 1-(2′-acetyl-1,1′-biphenyl-3-yl)-4-[(aminocarbonyl)amino]-1H-pyrazole-3-carboxamide] | 3.45 |
| NC(=O)Nc1cn(-c2ccc(-c3cccc(C(=O)O)c3)cc2)nc1C(N)=O [Example 96, 4′-{3-(aminocarbonyl)-4-[(aminocarbonyl)amino]-1H-pyrazol-1-yl}-1,1′-biphenyl-3-carboxylic acid] | 1.45 |
| Cc1cccc(-c2ccc(-n3cc(NC(N)=O)c(C(N)=O)n3)cc2)c1 [Example 102, 4-[(aminocarbonyl)amino]-1-(3′-methyl-1,1′-biphenyl-4-yl)-1H-pyrazole-3-carboxamide] | 2.82 |
| Cc1ccc(-c2ccc(-n3cc(NC(N)=O)c(C(N)=O)n3)cc2)cc1 [Example 103] | > 20 |
| N#Cc1cccc(-c2ccc(-n3cc(NC(N)=O)c(C(N)=O)n3)cc2)c1 [Example 104, 4-[(aminocarbonyl)amino]-1-(3′-cyano-1,1′-biphenyl-4-yl)-1H-pyrazole-3-carboxamide] | 0.677 |
| NC(=O)Nc1cn(-c2ccc(-c3ccccc3CO)cc2)nc1C(N)=O [Example 105, 4-[(aminocarbonyl)amino]-1-[2′-(hydroxymethyl)-1,1′-biphenyl-4-yl]-1H-pyrazole-3-carboxamide] | 0.351 |
| COc1cccc(-c2ccc(-n3cc(NC(N)=O)c(C(N)=O)n3)cc2)c1 [Example 107, 4-[(aminocarbonyl)amino]-1-(3′-methoxy-1,1′-biphenyl-4-yl)-1H-pyrazole-3-carboxamide] | 0.651 |
| Cc1cc(-c2ccc(-n3cc(NC(N)=O)c(C(N)=O)n3)cc2)ccc1F [Example 109, 4-[(aminocarbonyl)amino]-1-(4′-fluoro-3′-methyl-1,1′-biphenyl-4-yl)-1H-pyrazole-3-carboxamide] | 5.52 |
| NC(=O)Nc1nn(-c2ccc(-c3cccc(F)c3F)cc2)cc1C(N)=O [Example 112] | 1.99 |
| NC(=O)Nc1nn(-c2ccc(-c3ccc(F)cc3F)cc2)cc1C(N)=O [Example 113] | 0.355 |
| NC(=O)Nc1nn(-c2ccc(-c3ccc(F)c(F)c3)cc2)cc1C(N)=O [Example 114] | 3.19 |
| CC(C)c1cccc(-c2ccc(-n3cc(C(N)=O)c(NC(N)=O)n3)cc2)c1 [Example 116] | 11 |
| CC(C)c1ccc(-c2ccc(-n3cc(C(N)=O)c(NC(N)=O)n3)cc2)cc1 [Example 117] | > 20 |
| CSc1cccc(-c2ccc(-n3cc(C(N)=O)c(NC(N)=O)n3)cc2)c1 [Example 118] | 3.07 |
| CSc1ccc(-c2ccc(-n3cc(C(N)=O)c(NC(N)=O)n3)cc2)cc1 [Example 119] | 0.664 |
| COc1cccc(-c2ccc(-n3cc(NC(N)=O)c(C(N)=O)n3)cc2)c1F [Example 120, 4-[(aminooarbonyl)amino]-1-(2′-fluoro-3′-methoxy-1,1′-biphenyl-4-yl)-1H-pyrazole-3-carboxamide] | 0.972 |
| NC(=O)Nc1nn(-c2ccc(-c3ccc4ccccc4c3)cc2)cc1C(N)=O [Example 123] | > 20 |

| SMILES | IC50 [µM] |
| --- | --- |
| CC(C)(C)c1ccc(-c2ccc(-n3cc(C(N)=O)c(NC(N)=O)n3)cc2)cc1 [Example 126] | > 20 |
| CC(C)Cc1ccc(-c2ccc(-n3cc(C(N)=O)c(NC(N)=O)n3)cc2)cc1 [Example 127] | > 20 |
| CCCCc1ccc(-c2ccc(-n3cc(C(N)=O)c(NC(N)=O)n3)cc2)cc1 [Example 128] | > 20 |
| COc1ccc(Cl)cc1-c1ccc(-n2cc(NC(N)=O)c(C(N)=O)n2)cc1 [Example 129, 4-[(aminocarbonyl)amino]-1-(5′-chloro-2′-methoxy-1,1′-biphenyl-4-yl)-1H-pyrazole-3-carboxamide] | 1.82 |
| NC(=O)Nc1cn(-c2ccc(-c3cccc(-n4cccn4)c3)cc2)nc1C(N)=O [Example 130, 4-[(aminocarbonyl)amino]-1-[3′-(1H-pyrazol-1-yl)-1,1′-biphenyl-4-yl]-1H-pyrazole-3-carboxamide] | 1.79 |
| NC(=O)Nc1nn(-c2ccc(-c3cccc(C(F)(F)F)c3)cc2)cc1C(N)=O [Example 131] | 3.15 |
| NC(=O)Nc1nn(-c2ccc(-c3ccc(C(F)(F)F)cc3)cc2)cc1C(N)=O [Example 132] | 18.8 |
| NC(=O)Nc1cn(-c2ccc(-c3cccc(Cl)c3Cl)cc2)nc1C(N)=O [Example 133, 4-[(aminocarbonyl)amino]-1-(2′,3′-dichloro-1,1′-biphenyl-4-yl)-pyrazole-3-carboxamide] | 1.63 |
| NC(=O)Nc1nn(-c2ccc(-c3ccc(Cl)cc3Cl)cc2)cc1C(N)=O [Example 134, 4-[(aminocarbonyl)amino]-1-(2′,4′-dichloro-1,1′-biphenyl-4-yl)-1-pyrazole-3-carboxamide] | 3.84 |
| NC(=O)Nc1nn(-c2ccc(-c3cc(Cl)ccc3Cl)cc2)cc1C(N)=O [Example 135] | 1.66 |
| NC(=O)Nc1nn(-c2ccc(-c3ccc(Cl)c(Cl)c3)cc2)cc1C(N)=O [Example 136] | > 20 |
| NC(=O)Nc1nn(-c2ccc(-c3cc(Cl)cc(Cl)c3)cc2)cc1C(N)=O [Example 137] | > 20 |
| CCCCCc1ccc(-c2ccc(-n3cc(C(N)=O)c(NC(N)=O)n3)cc2)cc1 [Example 138] | > 20 |
| NC(=O)Nc1nn(-c2ccc(-c3ccc(C4CCCCC4)cc3)cc2)cc1C(N)=O [Example 140] | > 20 |
| NC(=O)Nc1cn(-c2ccc(-c3ccc(C(=O)O)cc3)cc2)nc1C(N)=O [Example 142, 4′-{3-(aminocarbonyl)-4-[(aminocarbonyl)amino]-1H-pyrazol-1-yl}-1,1′-biphenyl-4-carboxylic acid] | 0.17 |
| CCN(CC)C(=O)c1ccc(-c2ccc(-n3cc(NC(N)=O)c(C(N)=O)n3)cc2)cc1 [Example 143, 4-[(aminocarbonyl)amino]-1-{4′-[(diethylamino)carbonyl]-1,1′-biphenyl-4-yl}-1H-pyrazole-3-carboxamide] | 3.31 |
| CCOC(=O)c1cccc(-c2ccc(-n3cc(NC(N)=O)c(C(N)=O)n3)cc2)c1 [Example 144, ethyl 4′-{3-(aminocarbonyl)-4-[(aminocarbonyl)amino]-1H-pyrazol-1-yl}-1,1′-biphenyl-3-carboxylate] | 5.05 |
| CNC(=O)c1ccc(-c2ccc(-n3cc(NC(N)=O)c(C(N)=O)n3)cc2)cc1 [Example 145, 4-[(aminocarbonyl)amino]-1-{4′-[(methylamino)carbonyl]-1,1′-biphenyl-4-yl}-1H-pyrazole-3-carboxamide] | 0.24 |
| CCCNC(=O)c1ccc(-c2ccc(-n3cc(NC(N)=O)c(C(N)=O)n3)cc2)cc1 [Example 146, 4-[(aminocarbonyl)amino]-1-{4′-[(propylamino)carbonyl]-1,1′-biphenyl-4-yl}-1H-pyrazole-3-carboxamide] | 6.28 |
| CCOC(=O)c1ccc(-c2ccc(-n3cc(NC(N)=O)c(C(N)=O)n3)cc2)cc1 [Example 147, ethyl 4′-{3-(aminocarbonyl)-4-[(aminocarbonyl)amino]-1H-pyrazol-1-yl}-1,1′-biphenyl-4-carboxylate] | 6.01 |
| CC(C)NC(=O)c1cccc(-c2ccc(-n3cc(NC(N)=O)c(C(N)=O)n3)cc2)c1 [Example 148, 4-[(aminocarbonyl)amino]-1-{3′-[(isopropylamino)carbonyl]-1,1′-biphenyl-4-yl}-1H-pyrazole-3-carboxamide] | 7.14 |
